{
  "source": "patent US6444806B1",
  "about": "“Conjugates and methods of forming conjugates of oligonucleotides and carbohydrates” (Hisamitsu Pharmaceutical Co., Inc., priority 1996, dated 2002)",
  "key": {"[1]": {"assay": "Nuclease degradation assay in heat-inactivated 10% fetal bovine serum", "assay_type": "in vitro ADME", "settings": "phosphodiester oligonucleotides, up to 24 hours at 37° C. (FIG. 4)", "procedure": "(§1) Electrophoresis was performed using 20% polyacrylamide gels containing […], 90 mM Tris-borate (pH 8.3), 2 mM EDTA, 0.02% ammonium persulfate, and 15 μl tetraethylediamine (TEMED). Samples were dissolved in gel-loading buffer (10 M urea, 1.5 mM EDTA, 0.05% xylene cyanol, and 0.05% bromophenol blue) and heated at 90° C. for 1 minute and chilled before application to polyacrylamide gels.\nRadiolabeled oligonucleotide (30,000 CPM) was incubated in RPMI-1640 medium (GIBCO-BRL, Grand Island, N.Y.) containing 10% heat-inactivated fetal bovine serum at 37° C. Samples were removed at various times, mixed with gel-loading buffer, and frozen at −20 C. Samples were analyzed by polyacrylamide gel electrophoresis followed by autoradiography of the wet gel at −70° C."}, "[2]": {"molecular_target": "T1, Exonuclease-1 (Escherichia coli, UniProt P04995)", "T1 sequence (P04995 1-475)": "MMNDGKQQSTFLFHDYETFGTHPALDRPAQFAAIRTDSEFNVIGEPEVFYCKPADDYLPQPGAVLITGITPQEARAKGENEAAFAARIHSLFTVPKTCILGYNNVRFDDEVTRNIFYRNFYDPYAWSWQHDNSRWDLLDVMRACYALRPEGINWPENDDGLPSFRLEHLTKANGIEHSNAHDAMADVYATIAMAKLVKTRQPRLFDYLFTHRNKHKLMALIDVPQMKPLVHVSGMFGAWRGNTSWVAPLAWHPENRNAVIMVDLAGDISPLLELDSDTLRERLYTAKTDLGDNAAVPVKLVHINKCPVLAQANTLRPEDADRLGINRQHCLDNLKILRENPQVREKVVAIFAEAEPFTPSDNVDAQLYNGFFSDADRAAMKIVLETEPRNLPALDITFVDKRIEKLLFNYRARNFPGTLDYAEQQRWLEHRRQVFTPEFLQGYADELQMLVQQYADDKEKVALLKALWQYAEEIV", "assay_type": "in vitro ADME", "settings": "0.5 or 1.0 unit Exonuclease-1, 30 minutes at 37° C., gel autoradiography (FIG. 3)", "procedure": "as §1\nRadiolabeled oligonucleotide (30,000 CPM) was incubated with either 0.5 or 1.0 unit of Exonuclease-1 in 67 mM glycine (pH 9.5), 10 mM 2-mercaptoethanol, and 6.7 mM MgCl2 in 20 μl for 30 minutes at 37° C. After incubation, 5 μl of gel-loading buffer were added. All reactions were analyzed by polyacrylamide gel electrophoresis followed by autoradiography of the wet gel at −70° C."}, "[3]": {"test_system": "RNA complementary to the oligonucleotide", "assay": "RNase H assay (RNA-DNA heteroduplex formation)", "assay_type": "biochemical", "settings": "Escherichia coli RNase H, 10 or 30 minutes, room temperature (FIG. 6)", "procedure": "Radiolabeled oligonucleotide (30,000 CPM) was annealed to complementary RNA by incubation in 20 mM Tris-HCl (pH 7.5), 0.1 M KCl, 10 mM MgCl2, and 0.1 mM ATP in 10 μl for 5 minutes at 65° C. followed by slow cooling to room temperature. One unit of Escherichia coli RNase H was added and incubation at room temperature was continued for either 10 minutes or 30 minutes. After incubation, 5 μl of gel-loading buffer were added, and all samples were analyzed by polyacrylamide gel electrophoresis followed by autoradiography of the wet gel at −70° C.\nUnconjugated and sucrose-conjugated phosphodiester and phosphorothioate oligonucleotides were tested for their ability to form stable RNA-DNA heteroduplexes by determining RNA susceptibility to degradation by RNase H. RNA complementary to the oligonucleotide was labeled at the 5′-end using γ-^32P-ATP and T4 polynucleotide kinase. Radiolabeled RNA was hybridized to either unconjugated phosphodiester, sucrose-conjugated phosphodiester, unconjugated phosphorothioate, or sucrose-conjugated phosphorothioate oligonucleotide. Heteroduplex formation was assayed by incubation with RNase H for either 10 minutes or 30 minutes."}},
  "note": "{Sucrose} = sucrose through a 1,5-bis(succinimidooxycarbonyloxy)pentane crosslinker",
  "data": [
    {"substance": "unconjugated phosphodiester oligonucleotide: phosphodiester oligonucleotide, 19 nucleotides in length, sequence of Sequence ID No. 1, unconjugated control (GCTTCTGTGCTCATGGTCT; all phosphodiester, sugars by position and methylation of C not given here)", "values": [
      {"measurement": "degradation in heat-inactivated 10% fetal bovine serum", "setting": "[1]", "result": "highly susceptible to degradation"},
      {"measurement": "degradation by Exonuclease-1", "setting": "[2]", "result": "degraded nearly completely"},
      {"measurement": "RNA susceptibility to degradation by RNase H (stable RNA-DNA heteroduplex formation)", "setting": "[3]", "result": "degraded by RNase H"}
    ]},
    {"substance": "sucrose-conjugated phosphodiester oligonucleotide: 19-mer phosphodiester oligonucleotide (Sequence ID No. 1) coupled at 3′-end to sucrose via crosslinker 1,5-bis(succinimidooxycarbonyloxy)pentane (GCTTCTGTGCTCATGGTCT; all phosphodiester, 3' {Sucrose}, sugars by position and methylation of C not given here; further chemistry not fully specified)", "values": [
      {"measurement": "degradation in heat-inactivated 10% fetal bovine serum", "setting": "[1]", "result": "relatively resistant to degradation"},
      {"measurement": "degradation by Exonuclease-1", "setting": "[2]", "result": "only negligible degradation"},
      {"measurement": "RNA susceptibility to degradation by RNase H (stable RNA-DNA heteroduplex formation)", "setting": "[3]", "result": "degraded by RNase H"}
    ]}
  ]
}
